Assay results from patent publication US12448409B2, “Oxysterols and methods of use thereof” (priority 2016, dated 2025).

The compounds below were run against T1, GlunN1/GluN2A glutamate receptors (Homo sapiens, UniProt Q05586+Q12879) (assay: cell-based). Details: 3 μM test article; HEK293 cells expressing human GRIN1/GRIN2A; co-application with EC20 L-glutamate and 30 μM glycine; read-out: GluN2A PCA IWB Ephys % potentiation at 3 μM.
T1 construct: expressed in transfected cells
Method: NMDA potentiation was assessed using the whole cell patch clamp of mammalian cells which expressed NMDA receptors.
Whole-Cell Patch Clamp of Mammalian Cells (Ionworks Barracuda (IWB)
The whole-cell patch-clamp technique was used to investigate the effects of compounds on GlunN1/GluN2A glutamate receptors expressed in mammalian cells.
HEK293 cells were transformed with adenovirus 5 DNA and transfected with cDNA encoding the human GRIN1/GRIN2A genes. Stable transfectants were selected using G418 and Zeocin-resistance genes incorporated into the expression plasmid and selection pressure maintained with G418 and Zeocin in the medium. Cells were cultured in Dulbecco's Modified Eagle Medium/Nutrient Mixture (D-MEM/F-12) supplemented with 10% fetal bovine serum, 100 μg/ml penicillin G sodium, 100 μg/ml streptomycin sulphate, 100 μg/ml Zeocin, 5 μg/ml blasticidin and 500 μg/ml G418.
Test article effects were evaluated in 8-point concentration-response format (4 replicate wells/concentration). All test and control solutions contained 0.3% DMSO and 0.01% Kolliphor® EL (C5135, Sigma). The test article formulations were loaded in a 384-well compound plate using an automated liquid handling system (SciClone ALH3000, Caliper LifeScienses). The measurements were perfomed using Ion Works Barracuda platform following this procedure:
Electrophysiological Procedures:
• a) Intracellular solution (mM): 50 mM CsCl, 90 mM CsF, 2 mM MgCl2, 5 mM EGTA, 10 mM HEPES. Adjust to pH 7.2 with CsOH. • b) Extracellular solution, HB-PS (composition in mM): NaCl, 137; KCl, 1.0; CaCl2, 5; HEPES, 10; Glucose, 10; pH adjusted to 7.4 with NaOH (refrigerated until use). • c) Holding potential: −70 mV, potential during agonist/PAM application: −40 mV. Recording procedure: • a) Extracellular buffer will be loaded into the PPC plate wells (11 μL per well). Cell suspension will be pipetted into the wells (9 μL per well) of the PPC planar electrode. • b) Whole-cell recording configuration will be established via patch perforation with membrane currents recorded by on-board patch clamp amplifiers. • c) Two recordings (scans) will be performed. First, during pre-application of test article alone (duration of pre-application—5 min) and second, during test articles and agonist (EC20 L-glutamate and 30 μM glycine) co-application to detect positive modulatory effects of the test article.
Test Article Administration: The first pre-application will consist of the addition of 20 μL of 2× concentrated test article solution and, second, of 20 μL of 1× concentrated test article and agonist at 10 μL/s (2 second total application time).

T1 sequence (Q12879 23-1464, other chains not shown): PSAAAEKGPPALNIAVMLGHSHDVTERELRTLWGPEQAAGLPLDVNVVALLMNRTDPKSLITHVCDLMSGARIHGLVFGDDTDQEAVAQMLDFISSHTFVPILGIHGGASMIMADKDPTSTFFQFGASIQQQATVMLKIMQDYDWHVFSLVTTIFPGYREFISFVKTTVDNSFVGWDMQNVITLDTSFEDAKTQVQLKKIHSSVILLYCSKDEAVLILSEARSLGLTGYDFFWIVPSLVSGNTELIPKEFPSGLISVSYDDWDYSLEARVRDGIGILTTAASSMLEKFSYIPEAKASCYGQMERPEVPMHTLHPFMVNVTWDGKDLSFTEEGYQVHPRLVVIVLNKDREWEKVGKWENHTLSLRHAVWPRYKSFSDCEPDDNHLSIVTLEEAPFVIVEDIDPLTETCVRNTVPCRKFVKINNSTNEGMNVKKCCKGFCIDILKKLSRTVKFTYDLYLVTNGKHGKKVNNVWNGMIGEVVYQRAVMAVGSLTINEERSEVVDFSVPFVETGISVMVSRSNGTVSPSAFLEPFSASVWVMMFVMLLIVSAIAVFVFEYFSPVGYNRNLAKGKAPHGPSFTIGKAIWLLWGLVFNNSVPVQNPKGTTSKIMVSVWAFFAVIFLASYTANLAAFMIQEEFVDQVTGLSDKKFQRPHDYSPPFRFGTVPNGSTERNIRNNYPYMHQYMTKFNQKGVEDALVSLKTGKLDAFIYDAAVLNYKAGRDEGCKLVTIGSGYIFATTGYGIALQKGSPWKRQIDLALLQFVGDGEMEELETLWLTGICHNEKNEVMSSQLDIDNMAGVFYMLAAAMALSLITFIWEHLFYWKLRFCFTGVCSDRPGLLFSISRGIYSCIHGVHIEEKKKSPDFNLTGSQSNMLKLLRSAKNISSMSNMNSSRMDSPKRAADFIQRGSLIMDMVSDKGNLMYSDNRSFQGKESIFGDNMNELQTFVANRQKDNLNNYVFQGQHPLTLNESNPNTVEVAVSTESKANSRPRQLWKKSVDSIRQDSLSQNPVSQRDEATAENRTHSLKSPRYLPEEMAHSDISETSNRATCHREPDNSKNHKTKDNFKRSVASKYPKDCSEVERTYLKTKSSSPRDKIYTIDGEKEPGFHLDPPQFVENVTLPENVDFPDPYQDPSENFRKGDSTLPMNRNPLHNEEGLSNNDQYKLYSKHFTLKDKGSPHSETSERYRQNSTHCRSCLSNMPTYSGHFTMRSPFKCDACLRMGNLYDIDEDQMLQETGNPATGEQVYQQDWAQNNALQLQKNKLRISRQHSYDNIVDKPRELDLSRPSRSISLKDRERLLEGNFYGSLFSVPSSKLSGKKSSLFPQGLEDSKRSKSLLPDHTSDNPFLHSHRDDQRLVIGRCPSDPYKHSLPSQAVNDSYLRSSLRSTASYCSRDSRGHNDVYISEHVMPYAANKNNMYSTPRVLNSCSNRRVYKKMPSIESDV

C[C@H](CCC1(O)CCC(F)(F)CC1)[C@H]1CC[C@H]2[C@@H]3CC=C4C[C@@](C)(O)CC[C@]4(C)[C@H]3CC[C@]12C [Compound 1] and CC[C@]1(O)CC[C@@]2(C)C(=CC[C@H]3[C@@H]4CC[C@H]([C@H](C)CCC5(O)CCC(F)(F)CC5)[C@@]4(C)CC[C@@H]32)C1 [Compound 12] cannot be ordered by activation at 3 µM: over 150% for the first, over 150% for the second.

C[C@H](CCC1(O)CCCCC1)[C@H]1CC[C@H]2[C@@H]3CC=C4C[C@@](C)(O)CC[C@]4(C)[C@H]3CC[C@]12C [Compound 2] and C[C@H](CCC1(O)CCCC1)[C@H]1CC[C@H]2[C@@H]3CC=C4C[C@@](C)(O)CC[C@]4(C)[C@H]3CC[C@]12C [Compound 3] cannot be ordered by activation at 3 µM: over 150% for the first, over 150% for the second.

C[C@H](CCC1(O)CCC1)[C@H]1CC[C@H]2[C@@H]3CC=C4C[C@@](C)(O)CC[C@]4(C)[C@H]3CC[C@]12C [Compound 4] and C[C@H](CCC1(O)CCOCC1)[C@H]1CC[C@H]2[C@@H]3CC=C4C[C@@](C)(O)CC[C@]4(C)[C@H]3CC[C@]12C [Compound 6] fall in the same range of activation at 3 µM: 100 to 150% for the first, 100 to 150% for the second.

First: C[C@H](CC[C@]1(O)CCOC1)[C@H]1CC[C@H]2[C@@H]3CC=C4C[C@@](C)(O)CC[C@]4(C)[C@H]3CC[C@]12C [Compound 5-A]
Second: C[C@H](CC[C@@]1(O)CCOC1)[C@H]1CC[C@H]2[C@@H]3CC=C4C[C@@](C)(O)CC[C@]4(C)[C@H]3CC[C@]12C [Compound 5-B]
The activation at 3 µM of the first is lower: 100 to 150% for the first, over 150% for the second.

C[C@H](CCC1(O)CCOC1)[C@H]1CC[C@H]2[C@@H]3CC=C4C[C@@](C)(O)CC[C@]4(C)[C@H]3CC[C@]12C (some centres unmarked) [Compound 5] and C[C@H](CCC1(O)CCCOC1)[C@H]1CC[C@H]2[C@@H]3CC=C4C[C@@](C)(O)CC[C@]4(C)[C@H]3CC[C@]12C (some centres unmarked) [Compound 11] cannot be ordered by activation at 3 µM: over 150% for the first, over 150% for the second.

First: C[C@H](CCC1(O)CCN(C)CC1)[C@H]1CC[C@H]2[C@@H]3CC=C4C[C@@](C)(O)CC[C@]4(C)[C@H]3CC[C@]12C [Compound 8]
Second: CC(=O)N1CCC(O)(CC[C@@H](C)[C@H]2CC[C@H]3[C@@H]4CC=C5C[C@@](C)(O)CC[C@]5(C)[C@H]4CC[C@]23C)CC1 [Compound 9]
The activation at 3 µM of the first is lower: 10 to 100% for the first, over 150% for the second.

First: CC[C@]1(O)CC[C@@]2(C)C(=CC[C@H]3[C@@H]4CC[C@H]([C@H](C)CCC5(O)CCC(C)(C)CC5)[C@@]4(C)CC[C@@H]32)C1 [Compound 13]
Second: CC[C@]1(O)CC[C@@]2(C)C(=CC[C@H]3[C@@H]4CC[C@H]([C@H](C)CCC5(O)CCOCC5)[C@@]4(C)CC[C@@H]32)C1 [Compound 14]
The activation at 3 µM of the first is lower: 10 to 100% for the first, over 150% for the second.

CC[C@]1(O)CC[C@@]2(C)C(=CC[C@H]3[C@@H]4CC[C@H]([C@H](C)CCC5(O)CCCOC5)[C@@]4(C)CC[C@@H]32)C1 (some centres unmarked) [Compound 15] and CC[C@]1(O)CC[C@@]2(C)[C@@H](CC[C@@H]3[C@@H]2CC[C@]2(C)[C@@H]([C@H](C)CCC4(O)CCCOC4)CC[C@@H]32)C1 (some centres unmarked) [Compound 24] cannot be ordered by activation at 3 µM: over 150% for the first, over 150% for the second.

Compared with C[C@H](CCC1(O)CCC(F)(F)CC1)[C@H]1CC[C@H]2[C@@H]3CC[C@H]4C[C@@](C)(O)CC[C@]4(C)[C@H]3CC[C@]12C [Compound 16], CC[C@]1(O)CC[C@@]2(C)[C@@H](CC[C@@H]3[C@@H]2CC[C@]2(C)[C@@H]([C@H](C)CCC4(O)CCC(F)(F)CC4)CC[C@@H]32)C1 [Compound 21] is higher in activation at 3 µM: 10 to 100% for the first, over 150% for the second.

C[C@H](CC[C@]1(O)CCOC1)[C@H]1CC[C@H]2[C@@H]3CC[C@H]4C[C@@](C)(O)CC[C@]4(C)[C@H]3CC[C@]12C [Compound 17] and C[C@H](CCC1(O)CCCOC1)[C@H]1CC[C@H]2[C@@H]3CC[C@H]4C[C@@](C)(O)CC[C@]4(C)[C@H]3CC[C@]12C (some centres unmarked) [Compound 19] cannot be ordered by activation at 3 µM: over 150% for the first, over 150% for the second.

C[C@H](CCC1(O)CCOCC1)[C@H]1CC[C@H]2[C@@H]3CC[C@H]4C[C@@](C)(O)CC[C@]4(C)[C@H]3CC[C@]12C [Compound 18] and CC[C@]1(O)CC[C@@]2(C)[C@@H](CC[C@@H]3[C@@H]2CC[C@]2(C)[C@@H]([C@H](C)CCC4(O)CCOCC4)CC[C@@H]32)C1 [Compound 23] cannot be ordered by activation at 3 µM: over 150% for the first, over 150% for the second.

C[C@H](CCC1(O)CCC(C)(C)CC1)[C@H]1CC[C@H]2[C@@H]3CC[C@H]4C[C@@](C)(O)CC[C@]4(C)[C@H]3CC[C@]12C [Compound 20] and CC[C@]1(O)CC[C@@]2(C)[C@@H](CC[C@@H]3[C@@H]2CC[C@]2(C)[C@@H]([C@H](C)CCC4(O)CCC(C)(C)CC4)CC[C@@H]32)C1 [Compound 22] fall in the same range of activation at 3 µM: 10 to 100% for the first, 10 to 100% for the second.

Same assay, conditions: HEK293, read-out: GluN2A PCA IWB Ephys % potentiation at 3 μM

Compared with C[C@H](CCC1(O)CCNCC1)[C@H]1CC[C@H]2[C@@H]3CC=C4C[C@@](C)(O)CC[C@]4(C)[C@H]3CC[C@]12C [Compound 7], C[C@H](CCC1(O)CCC(C)(C)CC1)[C@H]1CC[C@H]2[C@@H]3CC=C4C[C@@](C)(O)CC[C@]4(C)[C@H]3CC[C@]12C [Compound 10] is lower in activation at 3 µM: 100 to 150% for the first, 10 to 100% for the second.
